Measurements: publication PMC9024521, “4-Heteroaryl Substituted Amino-3,5-Dicyanopyridines as New Adenosine Receptor Ligands: Novel Insights on Structure-Activity Relationships and Perspectives” (Pharmaceuticals, 2022)

Key:
hA1AR [1] = biological target: T1, hA1AR (Homo sapiens, UniProt P30542); assay: Competition binding, [3H]DPCPX, hA1 CHO cell membranes; conditions: displacement of [3H]DPCPX, hA1 CHO cells; mean ± SEM of four assays
T1 construct: host or cells: CHO cells
T1 sequence (P30542 1-326): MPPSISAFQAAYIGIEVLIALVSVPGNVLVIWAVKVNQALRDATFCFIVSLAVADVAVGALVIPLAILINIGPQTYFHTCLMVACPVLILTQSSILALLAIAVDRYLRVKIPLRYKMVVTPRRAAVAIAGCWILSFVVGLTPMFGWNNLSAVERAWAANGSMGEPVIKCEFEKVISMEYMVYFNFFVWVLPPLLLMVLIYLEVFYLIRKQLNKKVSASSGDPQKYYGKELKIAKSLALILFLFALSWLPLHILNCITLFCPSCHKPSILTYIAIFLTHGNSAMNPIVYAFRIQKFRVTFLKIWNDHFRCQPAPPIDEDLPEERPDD
Experimental: (§1) CHO cells transfected with hA1, hA2A, hA2B and hA3 ARs (Perkin Elmer, Boston, MA, USA) were grown adherently and maintained in Dulbecco’s modified Eagle’s medium with nutrient mixture F12, containing 10% fetal calf serum, penicillin (100 U/mL), streptomycin (100 μg/mL), L-glutamine (2 mM) and geneticine (G418; 0.2 mg/mL), at 37 °C, in 5% CO2/95% air, until their use in cAMP assays. For membrane preparation, the culture medium was removed, and the cells were washed with phosphate-buffered saline and scraped off T75 flasks in ice-cold hypotonic buffer (5 mM Tris HCl, 1 mM EDTA, pH 7.4). The cell suspension was homogenized with a Polytron, centrifuged for 30 min at 40,000× g, at 4 °C, and the resulting membrane pellet was used for competition binding experiments.
(§2) All synthesized compounds were tested for their affinity to hA1, hA2A and hA3 ARs. Competition experiments to hA1AR were carried out by incubating 1 nM [^3H]-8-cyclopentyl-1,3-dipropylxanthine ([^3H]-DPCPX) with membrane suspension (50 μg of protein/100 μL) and different concentrations of the examined compounds at 25 °C for 90 min in 50 mM Tris HCl, pH 7.4. Non-specific binding was defined as binding in the presence of 1 μM DPCPX and was always <10% of the total binding. Inhibition experiments to hA2A ARs were performed by incubating the radioligand [^3H]-4-(-2-[7-amino-2-{2-furyl}{1,2,4}triazolo{2,3-a} {1,3,5}triazin-5-yl-amino]ethyl)phenol ([^3H]-ZM241385) (1 nM) with the membrane suspension (50 μg of protein/100 μL) and different concentrations of the examined compounds for 60 min, at 4 °C, in 50 mM Tris HCl (pH 7.4), 10 mM MgCl2. Non-specific binding was determined in the presence of ZM241385 (1 μM) and was about 20% of the total binding. Competition binding experiments to A3ARs were carried out by incubating the membrane suspension (50 μg of protein/100 μL) with 0.5 nM [^125I]-N6-(4-aminobenzyl)-N-methylcarboxamidoadenosine ([^125I]-ABMECA) in the presence of different concentrations of the examined compounds for an incubation time of 120 min, at 4 °C, in 50 mM Tris HCl (pH 7.4), 10 mM MgCl2, 1 mM EDTA. Non-specific binding was defined as binding in the presence of 1 μM ABMECA and was always <10% of the total binding. Bound and free radioactivity were separated by filtering the assay mixture through Whatman GF/B glass-fiber filters, using a Brandel cell harvester (Brandel Instruments, Unterföhring, Germany). The filter bound radioactivity was counted by Packard Tri Carb 2810 TR scintillation counter (Perkin Elmer).
(§3) The protein concentration was determined according to a Bio-Rad method, with bovine albumin as a standard reference. Inhibitory binding constant (Ki) values were calculated from those of IC50 according to the Cheng–Prusoff equation, Ki = IC50/(1 + [C*]/KD*), where [C*] is the concentration of the radioligand, and KD* its dissociation constant. Ki and IC50 values were calculated by non-linear regression analysis, using the equation for a sigmoid concentration-response curve (Graph-PAD Prism, San Diego, CA, USA).

hA2AAR = biological target: T2, hA2AAR (Homo sapiens, UniProt P29274); assay: Competition binding, [3H]ZM241385, hA2A CHO cell membranes; conditions: for Ki: displacement of [3H]ZM241385, hA2A CHO cells, mean ± SEM of four assays
T2 construct: host or cells: CHO cells
T2 sequence (P29274 whole entry): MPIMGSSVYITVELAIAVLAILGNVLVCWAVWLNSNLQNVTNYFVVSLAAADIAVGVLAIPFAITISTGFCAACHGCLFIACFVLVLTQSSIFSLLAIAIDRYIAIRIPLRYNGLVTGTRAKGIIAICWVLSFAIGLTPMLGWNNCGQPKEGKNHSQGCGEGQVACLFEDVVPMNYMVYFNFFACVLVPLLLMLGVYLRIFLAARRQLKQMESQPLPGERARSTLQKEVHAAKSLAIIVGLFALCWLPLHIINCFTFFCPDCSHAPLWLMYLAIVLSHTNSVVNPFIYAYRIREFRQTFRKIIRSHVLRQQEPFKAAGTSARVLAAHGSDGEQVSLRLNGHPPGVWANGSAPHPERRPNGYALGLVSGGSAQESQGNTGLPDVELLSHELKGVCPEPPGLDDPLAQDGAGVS
Experimental: as §1, §2, §3

hA3AR = biological target: T3, hA3AR (Homo sapiens, UniProt P0DMS8); assay: Competition binding, [125I]AB-MECA, hA3 CHO cell membranes; conditions: for Ki: displacement of [125I]AB-MECA, hA3 CHO cells, mean ± SEM of four assays; for inhibition at 1 µM: 1 µM compound, [125I]AB-MECA binding, read-out: I% hA3 (percentage of inhibition)
T3 construct: host or cells: CHO cells
T3 sequence (P0DMS8 1-318): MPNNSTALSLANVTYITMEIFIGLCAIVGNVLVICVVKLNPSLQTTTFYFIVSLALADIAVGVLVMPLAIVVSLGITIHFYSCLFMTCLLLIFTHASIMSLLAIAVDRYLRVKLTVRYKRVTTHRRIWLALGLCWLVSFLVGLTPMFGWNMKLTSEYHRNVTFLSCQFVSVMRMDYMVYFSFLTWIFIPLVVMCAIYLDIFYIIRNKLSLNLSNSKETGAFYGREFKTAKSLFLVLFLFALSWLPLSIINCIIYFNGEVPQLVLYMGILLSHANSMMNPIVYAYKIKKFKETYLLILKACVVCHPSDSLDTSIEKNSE
Experimental: as §1, §2, §3

hA2B AR [2] = biological target: T4, hA2B AR (Homo sapiens, UniProt P29275); assay: cAMP assay in CHO cells expressing hA2B AR (stimulation of cAMP production); type: cell-based; conditions: for Emax at 1 µM: CHO, 1 µM compound, in comparison with NECA (1 µM = 100%), read-out: Efficacy hA2B (cAMP assay) (converted); for EC50: hA2B CHO cells, mean ± SEM of four assays
T4 construct: host or cells: CHO cells
T4 sequence (P29275 1-332): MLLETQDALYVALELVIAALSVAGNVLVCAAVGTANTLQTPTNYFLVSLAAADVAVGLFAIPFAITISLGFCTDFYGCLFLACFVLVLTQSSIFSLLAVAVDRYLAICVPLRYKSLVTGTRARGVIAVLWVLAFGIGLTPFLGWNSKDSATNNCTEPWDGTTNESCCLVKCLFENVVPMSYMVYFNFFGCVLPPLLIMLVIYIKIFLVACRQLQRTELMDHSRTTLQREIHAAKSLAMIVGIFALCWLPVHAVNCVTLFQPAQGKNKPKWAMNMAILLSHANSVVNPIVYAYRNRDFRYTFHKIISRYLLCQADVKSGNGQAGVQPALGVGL
Experimental: (§4) The amino-3,5-dicyanopyridines 1–21 were tested for their affinity at hA1, hA2A and hA3 ARs, stably transfected in Chinese Hamster Ovary (CHO) cells. Moreover, they were also studied as hA2B agonists by evaluating their stimulatory effect on cAMP production in CHO cells, stably expressing the hA2B AR. […] Due to their interesting pan profile, both compounds 1 and 5 were evaluated as AR agonists also at the hA2A and hA3 subtypes.
as §1
(§5) CHO cells transfected with hAR subtypes were washed with phosphate-buffered saline, detached with tripsine and centrifuged for 10 min at 200× g. Cells were seeded in a 96-well white half-area microplate (Perkin Elmer, Boston, USA) in a stimulation buffer composed of Hank Balanced Salt Solution, 5 mM HEPES, 0.5 mM Ro 20–1724, 0.1% BSA. The cAMP levels were then quantified by using the AlphaScreen cAMP Detection Kit (Perkin Elmer, Boston, MA, USA), following the manufacturer’s instructions. At the end of the experiments, the plates were read with a Perkin Elmer EnSight Multimode Plate Reader.

hA1AR [3] = biological target: T1, hA1AR; assay: Modulation of Forskolin-stimulated cAMP levels in hA1 CHO cells; type: cell-based; conditions: for IC50: footnote d, vs CCPA 10 nM; for hA1AR Efficacy: normalized: CCPA full agonist = 100%, DPCPX inverse agonist = −100%; for hA1AR Profile: pharmacological profile in cAMP assay
Experimental: as §4, §1, §5

hA2B AR [4] = biological target: T4, hA2B AR; set-up: method as in PMID 15239649; conditions: in comparison with NECA; ref [2]; cited from earlier work

| Ki (hA1AR [1]) | Ki (hA2AAR) | Ki (hA3AR) | Emax at 1 µM (hA2B AR [2]) | EC50 (hA2B AR [2]) | IC50 (hA1AR [3]) | hA1AR Efficacy (hA1AR [3]) | hA1AR Profile (hA1AR [3]) | melting point | inhibition at 1 µM (hA3AR) | EC50 (hA1AR [3]; footnote c, mean ± SEM of four experiments, read-out: hA1AR EC50 or IC50, potency to modulate Forskolin-stimulated cAMP levels) | inhibition at 1 µM (hA2AAR; 1 µM compound, [3H]ZM241385 binding, read-out: I% hA2A (percentage of inhibition)) | SMILES | Efficacy hA2B (cAMP assay) (hA2B AR [4]) |
| --- | --- | --- | --- | --- | --- | --- | --- | --- | --- | --- | --- | --- | --- |
| 51 ± 4 nM | 442 ± 37 nM | 849 ± 74 nM | 4% | > 1000 nM | 125 ± 11 nM | 0.82 ± 0.07% | Antagonist | 147 to 148 °C |  |  |  | Cl.N#Cc1c(N)nc(SCc2cnc[nH]2)c(C#N)c1-c1ccco1 [Compound 11, 2-Amino-4-(furan-2-yl)-6-[(1H-imidazol-5-ylmethyl)sulfanyl]pyridine-3,5-dicarbonitrile hydrochloride] |  |
| 315 ± 28 nM | 157 ± 14 nM |  | 3% | > 1000 nM | 768 ± 67 nM | 1.31 ± 0.11% | Antagonist | 265 to 266 °C | 16% |  |  | N#Cc1c(N)nc(NCc2ncc[nH]2)c(C#N)c1-c1ccco1 [Compound 12, 2-Amino-4-(furan-2-yl)-6-[(1H-imidazol-2-ylmethyl)amino]pyridine-3,5-dicarbonitrile] |  |
| 393 ± 32 nM | 138 ± 11 nM | 279 ± 21 nM | 2% | > 1000 nM |  |  |  | 221 to 222 °C |  |  |  | N#Cc1c(NC2CCCC2)nc(SCc2ncc[nH]2)c(C#N)c1-c1ccco1 [Compound 18] |  |
| 292 ± 26 nM |  |  | 13% | > 1000 nM |  |  |  | 241 to 242 °C | 18% |  | 1% | N#Cc1c(NC2CC2)nc(SCc2ncc[nH]2)c(C#N)c1-c1ccco1 [Compound 19] |  |

More lines, now with the values behind:

| SMILES | Ki (hA1AR [1]) | Ki (hA2AAR) | Ki (hA3AR) | Emax at 1 µM (hA2B AR [2]) | EC50 (hA2B AR [2]) | IC50 (hA1AR [3]) | hA1AR Efficacy (hA1AR [3]) | hA1AR Profile (hA1AR [3]) | melting point | inhibition at 1 µM (hA3AR) | EC50 (hA1AR [3]; footnote c, mean ± SEM of four experiments, read-out: hA1AR EC50 or IC50, potency to modulate Forskolin-stimulated cAMP levels) | inhibition at 1 µM (hA2AAR; 1 µM compound, [3H]ZM241385 binding, read-out: I% hA2A (percentage of inhibition)) | Efficacy hA2B (cAMP assay) (hA2B AR [4]) |
| --- | --- | --- | --- | --- | --- | --- | --- | --- | --- | --- | --- | --- | --- |
| N#Cc1c(N)nc(SCC(=O)NCc2cnc[nH]2)c(C#N)c1-c1ccco1 [Compound 15, 2-{[6-Amino-3,5-dicyano-4-(furan-2-yl)pyridin-2-yl]sulfanyl}-N-(1H-imidazol-5-ylmethyl)acetamide] | 378 ± 26 nM | 225 ± 18 nM | 758 ± 66 nM | 1% | > 1000 nM |  |  |  | 269 to 270 °C |  |  |  |  |
| N#Cc1c(N)nc(SCC(=O)NCCc2cnc[nH]2)c(C#N)c1-c1ccco1 [Compound 16, 2-{[6-Amino-3,5-dicyano-4-(furan-2-yl)pyridin-2-yl]sulfanyl}-N-[2-(1H-imidazol-5-yl)ethyl]acetamide] | 30 ± 3 nM | 138 ± 11 nM |  | 1% | > 1000 nM |  | −43 ± 4% | Inverse Agonist | 223 to 226 °C | 30% | 59 ± 4 nM |  |  |
| N#Cc1c(SCc2ncc[nH]2)nc(N2CCCC2)c(C#N)c1-c1ccco1 [Compound 20] | 41 ± 3 nM | 89 ± 7 nM | 118 ± 11 nM | 8% | > 1000 nM |  |  |  | 232 to 234 °C |  |  |  |  |
| N#Cc1c(N)nc(SCc2ncc[nH]2)c(C#N)c1-c1ccccc1 [LUF5833, 2-amino-6-[(1H-imidazol-2-ylmethyl)sulfanyl]-4-phenylpyridine-3,5-dicarbonitrile] |  |  |  |  |  |  |  |  |  |  |  |  | 81% |
